The assay concerns the target T1, human cathepsin K (Homo sapiens, UniProt P43235).
T1 construct: The proform of cathepsin K was converted to mature cathepsin K by brief exposure to pH 4; made in house; host or cells: baculovirus; Trichoplusia ni High Five cells (virus raised in Sf-9)
T1 sequence (P43235 115-329): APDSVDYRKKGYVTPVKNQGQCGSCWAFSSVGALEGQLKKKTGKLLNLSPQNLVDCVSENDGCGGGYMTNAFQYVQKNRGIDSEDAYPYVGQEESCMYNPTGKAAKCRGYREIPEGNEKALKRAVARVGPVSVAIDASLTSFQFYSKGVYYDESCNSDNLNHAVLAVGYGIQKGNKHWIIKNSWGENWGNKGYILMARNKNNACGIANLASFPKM
The assay is described as follows: cathepsin K inhibition assay, fluorogenic substrate Cbz-Phe-Arg-AMC, progress curve method. It is filed as biochemical. As to conditions: Table 1; human recombinant enzyme, pH 5.5, 30° C., 10 μM substrate; read-out: hcatK Ki. How it is done: All assays for cathepsin K were carried out with human and rat recombinant enzyme. Assays for cathepsins S & V were also carried out with human recombinant enzyme. Assays for human cathepsins B, H, and L were carried out with enzyme, purchased from Athens Research and Technology, Inc., prepared from human liver tissue. […] A stock substrate solution of Cbz-Phe-Arg-AMC was prepared at a concentration of 50 mM in dimethyl sulfoxide. This substrate was diluted into the assay for a final substrate concentration of 10 μM in the rat cathepsin K, human cathepsin K, and human cathepsin B assays; a final substrate concentration of 5 μM in the human cathepsin L assay; and a final substrate concentration of 2 μM in the human cathepsin V assay.
All assays contained 10% dimethyl sulfoxide. […] All assays were conducted at 30° C. Product fluorescence (excitation at 360 nm; emission at 440 nm, (except cathepsin H which used excitation at 340 nm; emission at 420 nm)) was monitored with a PerSeptive Biosystems Cytofluor II fluorescence plate reader. Product progress curves were generated over 2.3 h monitoring the formation of 7-amino-4-methylcoumarin product (or β-naphthalamide for cathepsin H).
Two liters of Spodoptera frugiperda (Sf-9) cells (ATCC) were grown in Grace's Supplemented medium (Life Technologies) supplemented with 2 g/L glucose, 10% fetal bovine serum (HyClone) and 0.1% pluronic F-68 (Life Technologies). […] The cells continued to grow for 72 h post-infection, before the virus was harvested by centrifugation at 1400×g for 30 min.
One and one-half liters of Trichoplusia ni (T. ni) High Five (™) cells [JRH Biosciences, Woodland, Calif. […] Media were separated from cells at a rate of 1 L/min using the Centritech 100 (™) continuous-flow centrifuge (DuPont) operating at 200×g.
Protein Purification: Media (human and rat) were filtered through a Whatman 3 filter, and then loaded onto a 25 mL Poros HS II (26 mm×47 mm) cation exchange column equilibrated in 25 mM sodium acetate at pH 5.5 (equilibration buffer). The column was washed until the absorbance reached the baseline value, and then the protein was eluted with a linear gradient from 0-2 M sodium chloride in the equilibration buffer. Column fractions were analyzed by SDS-PAGE, N-terminal sequencing, and mass spectrometry. Fractions containing the proform of cathepsin K were pooled and frozen at −80° C. The proform was concentrated in an Amicon Centriprep 10 and fractionated with a Superdex 75 column (26 mm×600 mm, Pharmacia) equilibrated in 400 mM sodium chloride, 25 mM sodium acetate at pH 5.5.
Cathepsin K Activation: The proform of cathepsin K was converted to mature cathepsin K by brief exposure to pH 4 in the presence of 5 mM L-cysteine. Typically, 5 mM L-cysteine was added to 10 mL of approximately 1 mg/mL procathepsin K. One mL of this solution was diluted ten-fold into 450 mM sodium acetate at pH 4.0 containing 5 mM L-cysteine. This solution was reacted at 23° C. for 2 min before neutralization with 2 mL 1.8 M sodium acetate at pH 6.0. The neutralized sample was added to the remaining 9 mL of procathepsin K. The mixture was incubated at 4° C. for 2-3 days. The activated cathepsin K was chromatographed on a Poros HS II column as described above.
Potential inhibitors were evaluated using the progress curve method. Assays were carried out in the presence of variable concentrations of test compound. Reactions were initiated by addition of buffered solutions of inhibitor and substrate to enzyme. Data analysis was conducted according to one of two procedures depending on the appearance of the progress curves in the presence of inhibitors. […] Ki values were calculated from IC50 values using equation 2 assuming a competitive model.

The results in this text go back to patent US7282512B2, “Cycloalkyl ketoamides derivatives useful as cathepsin K inhibitors” (SmithKline Beecham Corporation, priority 2002, dated 2007).

The term Ki denotes the dissociation constant of the complex between target and ligand, obtained from inhibition or displacement. In the case of `CCCCC(NC(=O)OCC1(COc2nnc(C)cc2-c2ccccc2)CCC1)C(=O)C(=O)N[C@H](C)c1ccccc1` (stereo in doubt) [Example 32, (1-{[(6-methyl-4-phenylpyridazin-3-yl)oxy]methyl}cyclobutyl)methyl (1R)-1-(oxo{[(1R)-1-phenylethyl]amino}acetyl)pentylcarbamate], the Ki was in the range of 10 to 100 nM.

In the case of `CCCC[C@H](NC(=O)OC1(Cc2ccccc2)CCC1)C(=O)C(=O)N[C@H](C)c1ccccc1` [Example 1, 1-Benzylcyclobutyl (1S)-1-(oxo{[(1R)-1-phenylethyl]amino}acetyl)pentylcarbamate], the Ki was 100 to 1000 nM.

Take `CCCC[C@H](NC(=O)OC1(Cc2ccccc2)CCCC1)C(=O)C(=O)N[C@H](C)c1ccccc1` [Example 2]: the inhibition constant Ki was in the range of 10 to 100 nM.

For the molecule `CCCC[C@H](NC(=O)OC1(Cc2ccccc2)CCCCC1)C(=O)C(=O)N[C@H](C)c1ccccc1` [Example 4, 1-Benzylcyclohexyl(1S)-1-(oxo{[(1R)-1-phenylethyl]amino}acetyl)pentylcarbamate], the Ki fell in the range of 100 to 1000 nM.

Consider `C[C@@H](NC(=O)C(=O)[C@H](CCCCNC(=O)N1CCOCC1)NC(=O)OCC1(Cc2ccccc2)CCCCC1)c1ccccc1` [Example 9, (1-Benzylcyclohexyl)methyl(1S)-5-[(4-morpholinylcarbonyl)amino]-1-(oxo{[(1R)-1-phenylethy]amino}acetyl)pentylcarbamate], for which the Ki lay in the range of 10 to 100 nM.

Consider `C[C@@H](NC(=O)C(=O)[C@H](CCCCNC(=O)N1CCOCC1)NC(=O)OCC1(Cc2ccc(F)cc2)CCC1)c1ccccc1` [Example 10, [1-(4-Fluorobenzyl)cyclobutyl]methyl(1S)-5-[(4-morpholinylcarbonyl)amino]-1-(oxo{[(1R)-1-phenylethyl]amino}acetyl)pentylcarbamate], for which the inhibitory constant (Ki) lay in the range of 10 to 100 nM.

Consider `C[C@@H](NC(=O)C(=O)[C@H](CCCCNC(=O)N1CCOCC1)NC(=O)OCC1(Cc2ccncc2)CCC1)c1ccccc1` [Example 11, [1-(4-Pyridinylmethyl)cyclobutyl]methyl(1S)-5-[(4-morpholinylcarbonyl)amino]-1-(oxo{[(1R)-1-phenylethyl]amino}acetyl)pentylcarbamate], for which the inhibition constant Ki was 1 to 10 nM.

In the case of `C[C@@H](NC(=O)C(=O)[C@H](CCCCNC(=O)N1CCOCC1)NC(=O)OCC1(Cc2cccnc2)CCC1)c1ccccc1` [Example 12, [1-(3-Pyridinylmethyl)cyclobutyl]methyl(1S)-5-[(4-morpholinylcarbonyl)amino]-1-(oxo{[(1R)-1-phenylethyl]amino}acetyl)pentylcarbamate], the inhibition constant Ki was in the range of 100 to 1000 nM.

Take `CNC(=O)NCCCC[C@H](NC(=O)OCC1(Cc2c(F)cccc2F)CCC1)C(=O)C(=O)N[C@H](C)c1ccccc1` [Example 13, [1-(2,6-Difluorobenzyl)cyclobutyl]methyl(1S)-5-{[(methylamino)carbonyl]amino}-1-(oxo{[(1R)-1-phenylethyl]amino}acetyl)pentylcarbamate]: the Ki was 10 to 100 nM.

Consider `CCCC[C@H](NC(=O)OCC1(Cc2ccc(F)cc2)CCC1)C(=O)C(=O)Nc1ccn[nH]1` [Example 14, [1-(4-Fluorobenzyl)cyclobutyl]methyl(1S)-1-[oxo(1H-pyrazol-5-ylamino)acetyl]pentylcarbamate], for which the Ki is < 1 nM.

For the molecule `CN(C)S(=O)(=O)NCCCC[C@H](NC(=O)OCC1(Cc2ccc(F)cc2)CCC1)C(=O)C(=O)NCc1cccnc1` [Example 16, [1-(4-Fluorobenzyl)cyclobutyl]methyl(1S)-5-{[(dimethylamino)sulfonyl]amino}-1-{oxo[(3-pyridinylmethyl)amino]acetyl}pentylcarbamate], the Ki was 10 to 100 nM.

Regarding `CCCC[C@H](NC(=O)OCC1(Cc2nc(-c3ccccc3)cs2)CCC1)C(=O)C(=O)N[C@H](C)c1ccccc1` [Example 18, {1-[(4-phenyl-1,3-thiazol-2-yl)methyl]cyclobutyl}methyl(1S)-1-(oxo{[(1R)-1-phenylethyl]amino}acetyl)pentylcarbamate], the Ki lay within 1 to 10 nM.

Turning to `CCCC[C@H](NC(=O)OCC1(CSc2nccn2C)CCC1)C(=O)C(=O)N[C@H](C)c1ccccc1` [Example 19, (1-{[(1-methyl-1H-imidazol-2-yl)sulfanyl]methyl}cyclobutyl)methyl (1S)-1-(oxo{[(1R)-1-phenylethyl]amino}acetyl)pentylcarbamate], the inhibition constant (Ki) was 10 to 100 nM.

With `CCCC[C@H](NC(=O)OCC1(COc2ccnc(Cl)n2)CCC1)C(=O)C(=O)N[C@H](C)c1ccccc1` [Example 20, (1-{[(2-chloro-4-pyrimidinyl)oxy]methyl}cyclobutyl)methyl(1S)-1-(oxo{[(1R)-1-phenylethyl]amino}acetyl)pentylcarbamate], the Ki was in the range of 100 to 1000 nM.

Take `CCCC[C@H](NC(=O)OCC1(COc2ccnc(N3CCN(C)CC3)n2)CCC1)C(=O)C(=O)N[C@H](C)c1ccccc1` [Example 21, [1-({[2-(4-methyl-1-piperazinyl)-4-pyrimidinyl]oxy}methyl)cyclobutyl]methyl (1S)-1-(oxo{[(1R)-1-phenylethyl]amino}acetyl)pentylcarbamate]: the Ki is 10 to 100 nM.

With `CCCC[C@H](NC(=O)OCC1(COc2ccnc(N3CCOCC3)n2)CCC1)C(=O)C(=O)N[C@H](C)c1ccccc1` [Example 22, [1-({[2-(4-morpholinyl)-4-pyrimidinyl]oxy}methyl)cyclobutyl]methyl (1S)-1-(oxo{[(1R)-1-phenylethyl]amino}acetyl)pentylcarbamate], the Ki was in the range of 10 to 100 nM.

`CCCC[C@H](NC(=O)OCC1(CSc2ncccn2)CCC1)C(=O)C(=O)N[C@H](C)c1ccccc1` [Example 23, {1-[(2-pyrimidinylsulfanyl)methyl]cyclobutyl}methyl (1S)-1-(oxo{[(1R)-1-phenylethyl]amino}acetyl)pentylcarbamate]: the Ki fell in the range of 10 to 100 nM.

On to `CCCC[C@H](NC(=O)OCC1(CSc2nc3ccccc3o2)CCC1)C(=O)C(=O)N[C@H](C)c1ccccc1` [Example 24, {1-[(1,3-benzoxazol-2-ylsulfanyl)methyl]cyclobutyl}methyl (1S)-1-(oxo{[(1R)-1-phenylethyl]amino}acetyl)pentylcarbamate], for which the inhibition constant (Ki) is 10 to 100 nM.

Consider `CCCC[C@H](NC(=O)OCC1(COc2nccs2)CCC1)C(=O)C(=O)N[C@H](C)c1ccccc1` [Example 25, {1-[(1,3-thiazol-2-yloxy)methyl]cyclobutyl}methyl (1S)-1-(oxo{[(1R)-1-phenylethyl]amino}acetyl)pentylcarbamate], for which the Ki lay within 10 to 100 nM.

Take `CCCC[C@H](NC(=O)OCC1(COc2nc(-c3ccccc3)ns2)CCC1)C(=O)C(=O)N[C@H](C)c1ccccc1` [Example 26, (1-{[(3-phenyl-1,2,4-thiadiazol-5-yl)oxy]methyl}cyclobutyl)methyl (1S)-1-(oxo{[(1R)-1-phenylethyl]amino}acetyl)pentylcarbamate]: the Ki fell in the range of 10 to 100 nM.

As to `CCCC[C@H](NC(=O)OCC1(COc2ccnc(N3CCN(c4ccccc4)CC3)n2)CCC1)C(=O)C(=O)N[C@H](C)c1ccccc1` [Example 27, [1-({[2-(4-phenyl-1-piperazinyl)-4-pyrimidinyl]oxy}methyl)cyclobutyl]methyl (1S)-1-(oxo{[(1R)-1-phenylethyl]amino}acetyl)pentylcarbamate], the inhibitory constant (Ki) was 10 to 100 nM.
